Experimental data: patent publication US7049323B2, “Amidoheterocycles as modulators of the melanocortin-4 receptor” (Bristol-Myers Squibb Company, priority 2003, dated 2006)

Key:
[1] = biological target: T1, cloned human MC4R receptors (Homo sapiens, UniProt P32245); assay: Melanocortin MC4R membrane binding assay ([125I]NDP-α-MSH competition); details: [125I]NDP-α-MSH 0.1 nM, membranes of Hi5 insect cells or HEK-293 cells, 90 minutes at 37° C.
T1 construct: expressed in transfected cells; host or cells: Hi5 insect cells or HEK-293 cells (baculovirus/human MC4R receptor construct); membranes
Description: Melanocortin MC4R Binding Assay. […] A membrane binding assay was used to identify competitive ligands of [^125I]NDP-α-MSH binding to cloned human MC4R receptors expressed in Hi5 insect cells or HEK-293 cells transfected by a baculovirus/human MC4R receptor construct. The membrane binding buffer was composed of 25 mM HEPES, pH 7.4, 140 mM NaCl, 1.2 mM MgCl2, 2.5 mM CaCl2, and 0.1% BSA Membrane protein (0.5 μg) and [^125I]-NDP-α-MSH (to a final concentration of 0.1 nM) were added. Competing ligands or a buffer blank were added and incubated for 90 minutes at 37° C. After filtration, the cell membranes were evaluated in a Wallac Microbeta Trilux Scintillation and Luminescence Counter (Model 1450). Dose-response cureves were fitted by […] analyses and IC50 values are calculated using ExcelFit.

[2] = test system: Rodents (NPY, ob/ob, agouti, fasted feeding models); details: injected intracerebroventricularly (ICV); cited from earlier work
[3] = test system: male volunteers / patients with psychogenic erectile dysfunction; details: cited from earlier work
[4] = intramuscular, 0.005–0.03 mg/kg, three normal male volunteers

T1 sequence (P32245 whole entry): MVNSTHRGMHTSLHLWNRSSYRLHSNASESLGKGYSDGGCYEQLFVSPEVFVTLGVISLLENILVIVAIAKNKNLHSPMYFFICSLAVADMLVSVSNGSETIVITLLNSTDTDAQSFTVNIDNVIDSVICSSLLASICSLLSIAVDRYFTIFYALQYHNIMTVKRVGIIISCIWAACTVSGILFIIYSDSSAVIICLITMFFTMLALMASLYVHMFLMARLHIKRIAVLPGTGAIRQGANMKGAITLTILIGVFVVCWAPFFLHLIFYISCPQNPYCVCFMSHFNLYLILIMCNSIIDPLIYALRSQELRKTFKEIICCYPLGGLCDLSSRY

Row | IC50 [1] [nM] | Molecule | food intake [2] | other results
1 | 1000 to 10000 | CC(C)CC(=O)N(CC(C)C)[C@H]1CCN(C(=O)[C@@H](Cc2ccc(Cl)cc2)NC(=O)CCN(C)C)C1 [Example 66] | – | –
2 | < 250 | CN(C)CCC(=O)N[C@H](Cc1ccc(Cl)cc1)C(=O)N1CC[C@H](N(C2CCCCC2)S(=O)(=O)c2ccccc2)C1 [Example 67] | – | –
3 | 250 to 1000 | CC(C)C(=O)N(C1CCCCC1)[C@H]1CCN(C(=O)[C@@H](Cc2ccc(Cl)cc2)NC(=O)[C@H]2CCN2C)C1 [Example 68] | – | –
4 | < 250 | CC(C)C(=O)N(C1CCCCC1)[C@H]1CCN(C(=O)[C@@H](Cc2ccc(Cl)cc2)NC(=O)[C@@H]2CCN2C)C1 [Example 69] | – | –
5 | – | SHU-9119 | reverses this effect and can induce hyperphagia | –
6 | – | melanotan-II [MT-II] | reduced food intake | penile erections [3, 4]: caused intermittent non-painful penile erections; period of erections after dosing [3, 4]: 1 to 5 h; erections ([3]; subcutaneous, 0.025 mg/kg and 0.1 mg/kg, 10 patients with psychogenic erectile dysfunction): caused transient erections; responders ([3]; subcutaneous, 0.025 mg/kg and 0.1 mg/kg, of 10 patients with psychogenic erectile dysfunction): 8; onset of erections ([3]; subcutaneous, 0.025 mg/kg and 0.1 mg/kg, patients with psychogenic erectile dysfunction): 50 to 180 min
